1 compound from paper PMC3431801 (2012) can be followed below.

Holding throughout (assay type): biochemical
In one assay the target is PDE4D (PDE4) (Homo sapiens, UniProt Q08499). Nature of the assay: recombinant PDE activity assay with [3H]cAMP.
Another assay deals with PDE1. Kind of assay: recombinant PDE activity assay with [3H]cAMP, calmodulin and Ca2+.
The test system of the next assay is PDE3. Kind of assay: recombinant PDE activity assay with [3H]cAMP.

Sequence of PDE4D (PDE4) (Q08499 whole entry): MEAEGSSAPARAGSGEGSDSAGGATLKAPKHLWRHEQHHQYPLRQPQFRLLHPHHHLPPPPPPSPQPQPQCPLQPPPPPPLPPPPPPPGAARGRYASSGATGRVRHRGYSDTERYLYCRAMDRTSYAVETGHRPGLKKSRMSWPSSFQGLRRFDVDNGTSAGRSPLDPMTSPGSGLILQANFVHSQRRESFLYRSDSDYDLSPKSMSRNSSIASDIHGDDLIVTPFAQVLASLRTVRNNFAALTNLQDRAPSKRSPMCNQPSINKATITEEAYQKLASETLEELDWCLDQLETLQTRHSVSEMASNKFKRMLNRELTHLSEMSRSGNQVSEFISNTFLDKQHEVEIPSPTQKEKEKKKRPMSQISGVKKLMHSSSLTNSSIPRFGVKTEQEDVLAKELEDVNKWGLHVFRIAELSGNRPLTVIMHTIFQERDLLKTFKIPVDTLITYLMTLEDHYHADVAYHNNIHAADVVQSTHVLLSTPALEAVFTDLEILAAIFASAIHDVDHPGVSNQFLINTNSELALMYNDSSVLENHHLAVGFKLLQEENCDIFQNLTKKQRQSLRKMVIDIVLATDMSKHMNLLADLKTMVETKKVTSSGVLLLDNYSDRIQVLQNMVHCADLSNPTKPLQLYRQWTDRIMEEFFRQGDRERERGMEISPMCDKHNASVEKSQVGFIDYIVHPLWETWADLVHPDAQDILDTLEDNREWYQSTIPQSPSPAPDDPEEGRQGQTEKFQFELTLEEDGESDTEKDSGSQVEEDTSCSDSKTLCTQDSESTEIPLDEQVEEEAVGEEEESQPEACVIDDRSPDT

`Oc1ccc(/C=C/c2cc(O)cc(O)c2)cc1` [resveratrol]: the IC50 on PDE4D (PDE4) is roughly 14 µM; with PDE1, roughly 6 µM; with PDE3, roughly 10 µM.
